≈ marks a conversion by molar mass, not a printed value.
Tests used:
Apis mellifera = conditions: acute; oral; unspecified; mortality
Bibionidae = conditions: chronic/long-term; duration: 28 days; development
Folsomia candida = conditions: chronic/long-term; mortality
Typhlodromus pyri [1] = conditions: not reported; mortality
Daphnia magna = conditions: chronic/long-term; duration: 21 days; reproduction
Anas platyrhynchos = conditions: oral, mortality
Tagia sp. = conditions: acute, duration: 14 days
Typhlodromus pyri [2] = experiment: LR50; higher = less toxic; conditions: not reported; mortality

SMILES: CC1(C)[C@H](C(=O)O[C@H](C#N)c2cccc(Oc3ccccc3)c2)[C@@H]1/C=C\C(=O)OC(C(F)(F)F)C(F)(F)F [Acrinathrin]
- LD50 (Apis mellifera): 0.077 µg/piece
- NOEC (Bibionidae): 3.1e-05 mg/L
- NOEC (Folsomia candida): < 1 mg/kg
- NOEC (Typhlodromus pyri [1]): 0.00068 g/ha
- LD50 (Colinus virginianus; acute, oral, mortality): > 2250 mg/kg-day
- NOEC (Colinus virginianus; reproduction developmental, reproduction): 19.9 mg/kg-day
- NOEC (Colinus virginianus; short-term, oral, diet, mortality): 325 mg/kg-day
- LD50 (Rattus norvegicus; acute, oral, mortality): > 5000 mg/kg-day
- NOAEL (Rattus norvegicus; acute, oral, neurology): 1 mg/kg-day
- NOAEL (Rattus norvegicus; reproduction developmental, no effects): 9.4 mg/kg-day
- NOEC (Daphnia magna): 3.2e-06 mg/L
- LD50 (Anas platyrhynchos; acute, unspecified): > 2000 mg/kg-day
- NOEC (Anas platyrhynchos; short-term, feed): 173 mg/kg-day
- NOEC (Tagia sp.; biomass): 1.6 mg/kg
- LC50 (Tagia sp.; mortality): > 1000 mg/kg
- LC50 (Pimephales promelas; acute, duration: 96 hours, mortality): 1.7 ng/mL (≈ 3.14 nM)
- NOEC (Pimephales promelas; chronic/long-term, duration: 28 days): 1.1e-05 mg/L
- LR50 (Typhlodromus pyri [2]): 0.006 g/ha

Source: EPA's ToxValDB 9.5 (doi:10.2903/j.efsa.2013.3469)
